Values joined by “and” are separate entries in the source; they are usually repeats but may differ in a detail not shown here. Equal entries are not always repeated.
Assays:
SH-SY5Y cells = experiment: DNA content / cell cycle (2N/4N DNA ratio), image cytometry; assay type: cell-based, human
Procedure: To evaluate the growth dynamics of SH-SY5Y cells in the presence of AR71, neuroblastoma cells were treated with increasing concentrations (0.39–25 µM) of the compound tested for 24 or 72 h. Using image cytometry, we calculated the DNA content index as a 2N/4N DNA ratio to analyse the cell cycle distribution after 24 and 72 h of incubation with AR71.
SH-SY5Y cells were initially seeded in 96-well plates at a density of 5000 cells per well in 120 μL of medium. After 24 h, the cells were exposed to different concentrations of AR71 for either 24 or 72 h. Following a wash with PBS, the cells were fixed with 4% formaldehyde for 20 min and then stained with 1 µg/mL of Hoechst 33342 for 30 min at room temperature. Subsequently, images of 16 fields per well were captured using the ArrayScan VTI HCS Reader from Thermo Fisher Scientific, Inc. (Thermo Fisher Scientific, Waltham, MA, USA), which was equipped with a 5× objective. The cell number was calculated as the sum of the Hoechst-33342-stained cell nuclei using Cell Cycle Bioapplication V3 software and expressed as a per cent of control. The remaining adherent cells in culture wells reflected the cytotoxic potential of the tested compound. In the next step, a series of detailed images were acquired using the ArrayScan VTI HCS Reader equipped with a 10× objective to collect at least 500 nuclei/cells per replicate. The DNA cell content of single cells was analysed based on Hoechst-33342 fluorescence intensity of their nuclei using Cell Cycle Bioapplication V3 software and presented as the DNA 2N/4N ratio. All experiments were performed three times, each in four replicates. IC50 values were calculated with a non-linear fit to a sigmoidal dose–response curve (log compound vs. normalised response) using GraphPad Prism 6.07. The results are presented as mean ± SEM from at least three independent experiments. Statistical significance was evaluated using one-way ANOVA followed by Dunnett’s test. * p < 0.05, ** p < 0.01, and *** p < 0.001 indicate significant differences compared with the control counterparts.

hH3R = molecular target: T1, hH3R (Homo sapiens, UniProt Q9Y5N1); experiment: cAMP accumulation assay in HEK 293 cells stably expressing the hH3R; assay type: cell-based
T1 construct: expressed in transfected cells; host or cells: HEK 293 cells stably expressing hH3R, provided by Dr Thierry Calmels, Bioprojet-Biotech (France)
Procedure: The intrinsic activity of AR71 was evaluated in a 3′,5′-cyclic adenosine monophosphate (cAMP) accumulation assay in human embryonic kidney (HEK) 293 cells, stably expressing the hH3R [42].
The intrinsic activity of AR71 was evaluated in a 3′,5′-cyclic adenosine monophosphate (cAMP) accumulation assay in human embryonic kidney (HEK) 293 cells, stably expressing the hH3R [42], using the LANCE Ultra cAMP kit (Perkin Elmer, Waltham, MA, USA). The applied method was intended to measure the levels of cAMP generated because of changes in adenylyl cyclase activity mediated by GPCRs. The assay is based on the competition between the europium (Eu) chelate-labelled cAMP tracer and sample cAMP for binding sites on cAMP-specific monoclonal antibodies labelled with the ULight dye. The effect of AR71 (concentrations: 10^−10–10^−5 M) on reversing the inhibition of cAMP production by (R)-(-)-α-methyl histamine (30 nM) in forskolin-stimulated (10 μM) cells was evaluated. The experiment was conducted according to the principles described earlier. Experiments were performed three times in triplicates, and IC50 values were determined using GraphPad Prism 8.4.3 software.
Figure S1. Forskolin-stimulated cAMP accumulation studies in HEK 293 cells expressing the human histamine H3
receptor, co-treated with (R)(-)-α-Methylhistamine […] and AR71 (30 nM). […]

CCI-exposed mice = experiment: tail flick test in CCI neuropathic pain model; assay type: in vivo, mouse; details: 20 mg/kg i.p.
Procedure: The effects of a single intraperitoneal (i.p.) injection of AR71 at doses of 5, 10, and 20 mg/kg on mechanical (von Frey test) and thermal (cold plate and tail flick tests) stimulus were evaluated on day 14 following sciatic nerve injury (Figure 15). There were seven to eight animals per group. All these tests were performed in three time series after the administration of the compound. In the case of the von Frey test—after 30, 90, and 180 min; the cold plate test—after 35, 95, and 185 min; and the tail flick test—after 40, 100, and 190 min.
The mice were randomly divided into four experimental groups. One group received a vehicle treatment (10% DMSO/10%(2-Hydroxypropyl)-β-cyclodextrin/water for injection, i.p.), while the other three groups were administered with AR71 at doses of 5, 10, or 20 mg/kg of body weight (b.w.), i.p. Baseline measurements for all tests were conducted before the compounds were injected, and the results are presented as percentages of the maximal possible effect (% MPE). […] All data from behavioural tests were analysed using a one-way ANOVA with Bonferroni’s multiple comparison post hoc test. […]
Tail flick latency was measured on the dorsal part of the tail at two-thirds of its length by applying a focused beam of light (thermal stimulus). The time interval between the thermal stimulus’s onset and the tail’s withdrawal from the beam was recorded. […]

hH1R = molecular target: hH1R; design: method as in PMID 36370200; details: cited from earlier work

T1 sequence (Q9Y5N1 whole entry): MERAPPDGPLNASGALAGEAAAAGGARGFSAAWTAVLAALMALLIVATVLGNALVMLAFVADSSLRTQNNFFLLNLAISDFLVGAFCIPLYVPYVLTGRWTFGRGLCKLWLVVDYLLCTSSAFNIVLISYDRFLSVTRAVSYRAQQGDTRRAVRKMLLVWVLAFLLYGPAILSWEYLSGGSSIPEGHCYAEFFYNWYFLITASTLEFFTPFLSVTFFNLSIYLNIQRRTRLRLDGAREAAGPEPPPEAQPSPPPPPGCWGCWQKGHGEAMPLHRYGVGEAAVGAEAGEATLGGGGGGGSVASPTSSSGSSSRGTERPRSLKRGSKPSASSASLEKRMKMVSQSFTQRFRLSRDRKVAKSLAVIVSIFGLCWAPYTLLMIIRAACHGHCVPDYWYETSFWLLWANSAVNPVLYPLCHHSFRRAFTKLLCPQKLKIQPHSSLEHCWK

COc1cc(/C=C/C(=O)c2ccc(OCCCN3CCCCC3)cc2)cc(OC)c1OC [AR71, (E)-3-(3,4,5-trimethoxyphenyl)-1-(4-(3-(piperidin-1-yl)propoxy)phenyl)prop-2-en-1-one]
effect on cell cycle (SH-SY5Y cells; 3.125–25 µM, 24 and 72 h): cell cycle arrest at the G2/M phase (4N)
IC50 for 2N/4N DNA ratio (SH-SY5Y cells; 24 h incubation): 18800 nM
IC50 for 2N/4N DNA ratio (SH-SY5Y cells; 72 h incubation): 4540 nM
intrinsic activity profile at H3R (hH3R; counteracts inhibition of cAMP production by (R)-(-)-α-methyl histamine in forskolin-stimulated cells): H3R antagonist/inverse agonist
IC50 (hH3R; reversal of inhibition of cAMP production by (R)-(-)-α-methyl histamine (30 nM) in forskolin-stimulated (10 μM) cells): 83.5 ± 11.9 nM
effect in tail flick test vs vehicle (CCI-exposed mice; 100 and 190 min (p < 0.001 and p < 0.01)): significant pain-relieving effects
effect in tail flick test vs vehicle (CCI-exposed mice; 40 min post-injection, p < 0.05): significant analgesic effect
Ki (hH1R): 2700 nM and > 2500 nM
